Data as given in patent US20070105789A1, “Combinatorial chemotherapy treatment using Na+/K+ ATPase inhibitors” (priority 2004, published 2007).
≈ marks a conversion by molar mass, not a printed value. Where two headings read alike, the source gives them in different places.

Tests used:
A549 Sentinel Line = assay: Sentinel Line reporter assay (beta-gal, FACS); format: cell-based, human; settings: A549 sentinel line, with Gemcitabine, 40 hrs
Experimental: The expression level of beta-galactosidase gene in sentinel lines was determined by using a fluorescent substrate fluorescein di-B-D-Galactopyranside (FDG, Marker Gene Tech, #M0250) introduced into cells by hypotonic shock. Cleavage by beta-galactosidase results in the production of free fluorescein, which is unable to cross the plasma membrane and is trapped inside the beta-gal positive cells. Briefly, the cells to be analyzed are trypsinized, and resuspended in PBS containing 2 mM FDG (diluted from a 10 mM stock prepared in 8:1:1 mixture of water: ethanol: DMSO). The cells were then shocked for 4 minutes at 37° C. and transferred to FACS tubes containing cold 1×PBS on ice. Samples were kept on ice for 30 minutes and analyzed by FACS in FLI channel.
Sentinel Line cells with beta-galactosidase reporter gene were plated at 1×10^5 cells/10 cm dish. […] After 40 hrs, the cells were trypsinized and the expression level of reporter gene was determined by FDG loading.
The reporter activity was measured by FACS analysis.

VEGF = VEGF secretion in tumor cells; format: cell-based; settings: FIG. 8
HIF-1α [1] = assay: HIF-1α induced under normoxia by PHD inhibitor L-mimosone, Hep3B Western blot; format: cell-based, human; settings: 200 μM L-mimosone, 18 h
Experimental: Abundance of HIF-1α and β-actin was determined by western blotting.

[2] = system: Panc-1 human pancreatic xenograft; assay: Panc-1 human pancreatic tumor xenograft in nude mice; format: in vivo; settings: Panc-1; BNC-4 15 mg/ml s.c. pump; Gemcitabine 40 mg/kg q3d×4
Excerpt: (§1) Female nude mice (nu/nu) between 5 and 6 weeks of age weighing approximately 20 g were implanted subcutaneously (s.c.) by trocar with fragments of human tumors harvested from s.c. grown tumors in nude mice hosts. […] Each group contains 8-10 mice, each of which was ear tagged and followed throughout the experiment.
(§2) The administration of drugs or controls began the day the animals were pair-matched (Day 1). […] Mice were weighed and tumor measurements were obtained using calipers twice weekly, starting Day 1. These tumor measurements were converted to mg tumor weight by standard formula, (W^2×L)/2. The experiment is terminated when the control group tumor size reached an average of about 1 gram. Upon termination, the mice were weighed, sacrificed and their tumors excised. The tumors were weighed and the mean tumor weight per group was calculated.
(§3) The control animals received pumps containing vehicle (50% DMSO in DMEM). The mice treated with standard chemotherapy agent received intra-peritoneal injections of Gemcitabine at 40 mg/kg every 3 days for 4 treatments (q3d×4). Each data point represent average tumor weight (n=8) and error bars indicate SEM.
as §3

[3] = system: Caki-1 human renal cancer xenograft; format: in vivo, nude mice; settings: Caki-1
Excerpt: as §1, §2

Na+/K+-ATPase [4] = target: T1, Na+/K+-ATPase (Canis lupus familiaris, UniProt P50997); assay: Na+/K+-ATPase inhibition; format: biochemical, dog; settings: read-out: IC50 for inhibition of Na+/K+-ATPase
T1 construct: enzyme preparation from dog kidney (Sigma); purchased Sigma; host or cells: dog kidney tissue
Experimental: (§4) Anti-prolerafitive IC50 values were determined by MTS assay using an A549 cell line. Na^+/K^+-ATPase inhibition IC50 values were obtained using enzyme preparation from dog kidney (Sigma).

A549 cell line = assay: anti-proliferation MTS assay in A549 cell line; format: cell-based; settings: Homo sapiens
Experimental: as §4

HIF-1α [5] = assay: Western blot using anti-HIF-1α antibody (Example XVI); format: cell-based
[6] = system: panel of 10 cancer cell lines; assay: cytotoxicity against a panel of 10 cancer cell lines; format: cell-based; settings: read-out: median IC50
[7] = effective plasma concentration and effective oral dose in patients; format: in vivo; settings: Homo sapiens, cancer indications, 1.5 to 3 times that of cardiac indications, read-out: median effective concentration (EC50) of free drug
[8] = steady state serum level of about 50 ng/mL, xenograft nude mouse model
Na+/K+-ATPase [9] = settings: Erdmann E 1978; cited from earlier work
[10] = cited from earlier work
[11] = at therapeutic plasma level; cited from earlier work
[12] = cited from earlier work; remark: listed apart in the source
rats = settings: cited from earlier work
cats = settings: cited from earlier work
[13] = 12 healthy individuals, 2×0.5 mg for 8 days, radio-immunoassay

Structure (SMILES): C[C@@H]1OC(OC2C=C3CCC4C(CC[C@]5(C)[C@@H](c6ccc(=O)oc6)CC[C@]45O)[C@@]3(C)CC2)[C@H](O)[C@H](O)[C@H]1O (stereo partly drawn) [BNC-4, proscillaridin]
- effect on Gemcitabine-induced reporter activity (A549 Sentinel Line): significantly shift the reporter activity to the left
- secretion of VEGF in tumor cells (VEGF): directly or indirectly inhibits
- HIF-1α accumulation induced by L-mimosone (HIF-1α [1]): eliminated HIF-1α accumulation by L-mimosone
- TGI [2]: about 87%
- TGI ([3]; BNC-4 5 mg/ml s.c. pump): 43%
- TGI ([3]; BNC-4 15 mg/ml s.c. pump): 73%
- IC50 (Na+/K+-ATPase [4]): ~130 nM
- IC50 (A549 cell line): ~2.1 nM
- HIF-1α expression (HIF-1α [5]; 0.1 μM): completely inhibits
- HIF-1α expression (HIF-1α [5]; 1 μM): completely inhibits
- IC50 [6]: ~23 nM
- EC50 [7]: 1.2 to 2.5 ng/mL (≈ 2.26 to 4.71 nM)
- TGI (tumor growth inhibition) [8]: greater than 60%
- order of Na+/K+-ATPase-inhibition (Na+/K+-ATPase [9]): Ouabain<Digoxin<Proscillaridin
- Tmax [10, 13]: 48 ± 30 min
- median AUC [10, 13]: 385.0 ± 43.6 ng·h/mL
- median Cmax [10, 13]: 23.5 ± 2.6 ng/mL
- plasma half-life in human ([10]; according to the literature): about 40 hours
- measurable unconjugated drug as share of the administered quantity ([10]; after oral administration): 7%
- median plasma half-life (T1/2) ([10]; cardiac patients): up to 49 hours
- absolute bioavailability ([10]; dosage form with acid-resistant (enteric) coating): about 35%
- Volume-of-Distribution (VD) ([10]; in vivo): 562 L
- daily clearance ([10]; in vivo): ~35%
- drug and its metabolites excreted by the bile ([10]; in vivo): Greater than 99%
- total level of metabolism ([10]; in vivo): > 95%
- unchanged drug excreted by the kidneys ([10]; in vivo): less than 1%
- time of second, longer-lasting blood level peak ([10]; oral): about 1 hour
- time of third plasma peak after dosing ([10]; oral): about 10 hours
- higher absorption with decreased stomach acid production ([10]; patients taking antacids): up to 60%
- oral absorption, accepted median ([10]; simple oral formulations): about 20%
- bound to plasma protein [11]: about 85%
- tolerability in cancer patients ([12]; 0.25 to 0.5 mg/d i.v. for four days before surgery, 50 patients): well tolerated by all cancer patients with no appearance of either gastrointestinal or cardiac side effects
- patients exhibiting side-effects ([12]; 47 clinical studies, 3740 patients): about 6.3%
- reported cases where therapy could be resumed after a brief hiatus ([12]; 47 clinical studies): > 95%
- patients taken off the treatment for negative side effects ([12]; 1067 patients observed for up to 3 years): 0.7%
- well tolerated dose ([12]; cardiac patients): up to 1.5 mg/d
- well tolerated dose ([12]; cardiac patients, listed as Proscillaridin A): ~1.5 mg/day
- well tolerated dose ([12]; cardiologically-normal individuals): up to 3.5 mg/d
- dose producing typical intoxication symptoms ([12]; healthy individuals): above 4 mg p.o./d
- side effects ([12]; healthy volunteers, 1.5 mg daily for 20 days): no negative side effects
- average level of side effects in clinical reports ([12]; nausea, seasickness, headache, vomiting, stomach cramps, diarrhea): 5%
- long-term or late-appearing chronic toxicity ([12]; review of a total of 3740 patients): none of these cases noted any long-term or late-appearing chronic toxicity
- LD50 p.o. (rats; adult): 0.25 mg/kg
- LD50 p.o. (rats; young animals (female)): 76 mg/kg
- intravenous toxicity (cats): 0.193 mg/kg
